Measurements: patent US10357460B2, “Particulate comprising a calcium-containing compound and a sugar alcohol” (Takeda Nycomed AS, priority 2004, dated 2019)

Assays:
[1] = Compactability of sugar alcohols compressed alone; assay type: physicochemical; details: tablets of sugar alcohol alone; FIG. 19
Description: Tablets comprising sorbitol 110 μm, sorbitol 38 μm, isomalt 27 μm, maltitol, mannitol or xylitol were compressed on an instrumented Fette Exacta 1/F single punch tablet press, only maximum compression force on the upper punch was recorded.
Before the compression of each tablet the punch tips and the die bore were lubricated with a 5% suspension of magnesium stearate in acetone. The acetone was allowed to evaporate before compression of the tablet.
The sugar alcohol was weighed, transferred to the die bore and then compressed, see Table 14. Immediately after ejection the tablet was tested for crushing strength.

[2] = Crushing strength versus tablet compression force, calcium carbonate/sugar alcohol tablets (Example 11); details: for tendency of capping: observed during the experiment
Description: In all the below described experiments 1-24 the amount of calcium salt is 76.22% w/w of the final tablet mass, the amount of sugar alcohol is 23.78% w/w, with the exception of experiments 4 and 20 at which the 23.78% w/w of sugar alcohol is replaced with 14.63% w/w of sugar alcohol and 9.15% w/w of Precirol.
The calcium salt and the sugar alcohol are mixed in a total amount of 6 kg in a Fielder high shear mixer. The sugar alcohol is sieved through sieve size 300 μm prior to mixing. The mixing of 6 kg is done twice and the total yield of 12 kg is mixed in a planetary mixer. Thereafter, the mixtures are roller compacted (intra granular sugar alcohol) using the following values for GW, F, RS and screen size. (For the experiments 25-26 the sugar alcohol is admixed by hand after roller compaction has been carried out (extra granular sugar alcohol)).
The compactate is admixed with 0.34% w/w of magnesium stearate.
Compression is carried out on a Fette 1090 using a 18.9 mm×9.4 mm capsule shaped punch design and a theoretical tablet mass of 1683 mg. […] The crushing strength has been measured by use of a Schleuniger Autotest 4 and n=20.

treated patients = details: annual injections of 150.000-300.000 IU; cited from earlier work
pre-menopausal women = details: 1200 mg of calcium supplements daily, three menstrual cycles; placebo 48%; cited from earlier work
[3] = Tablet hardness as a function of compression pressure (Schleuniger AT4); assay type: physicochemical
Excerpt: Sorbitol was lump breaked in a Cone Mill (Quadro U20) and afterwards premixed with Calcium Carbonate in a high-shear mixer (Diosna P250 at low impeller speed and no chopper) for 60 sec.
The premix was granulated on a roller compactor (Gerteis 3W-Polygran), and the compacted granules was then mixed with Povidone K30, Aspartame, D3 Vitamin and Flavour in a high-shear mixer (Diosna P250 at low impeller speed and no chopper) for 60 sec. Finally, lubrication with Magnesium Stearate was done a high-shear mixer (Diosna P250 at low impeller speed and no chopper) for 25 sec.
The roller compaction was based on a setup with knurled rollers and control. The key set up parameters are: Gap Width (GW), Force (F), Roller Speed (RS) and screen size.
Tablet weight was approximately 1,750 mg. All in-process weight and hardness data are obtained using a Schleuniger AT4.

Molecule | compactability (slope of compression force versus crushing strength) [1] | tendency of capping [2] | further results
OC[C@@H](O)[C@H](O)[C@@H](O)CO [xylitol, Xylitol] | very poor compactability | tendency of capping | –
vitamin D | – | – | overall fracture rate (treated patients): significant reduction; rate of hip fracture (treated patients): not in the rate of hip fracture
[Ca] [calcium] | – | – | women with PMS related symptoms (pre-menopausal women): 30%
OC[C@@H](O)[C@@H](O)[C@H](O)[C@H](O)CO [mannitol, Mannitol] | very poor compactability | tendency of capping | –
Isomalt | Sorbitol is followed by isomalt | – | –
OC[C@@H](O)[C@@H](O[C@H]1O[C@H](CO)[C@@H](O)[C@H](O)[C@H]1O)[C@H](O)[C@@H](O)CO [maltitol, Maltitol] | very poor compactability | tendency of capping | binding properties (tablet hardness) ([3]; maltitol versus sorbitol 38 μm as binder, capsule shaped 9.4 mm*18.9 mm, FIG. 7): does not impart as good binding properties
OC[C@@H](O)[C@@H](O)[C@H](O)[C@@H](O)CO [sorbitol, Sorbitol] | best compactability | – | tablet hardness ([3]; decreasing size of sorbitol (110, 38, 11 μm), fixed compression force, 14 mm round tablets, FIG. 4): markedly increased tablet hardness; tablet hardness ([3]; presence of sorbitol compared to tablets consisting solely of calcium carbonate, FIG. 1): increased tablet hardness values
Glycerol distearat Type I EP [Precirol] | – | – | crushing strength ([2]; addition of Precirol to xylitol 34 μm, FIG. 11): increases the crushing strength
